Assay results as given in publication PMC9378861, “Formation and metabolism of 6-(1-acetol)-8-(1-acetol)-rutin in foods and in vivo, and their cytotoxicity” (Frontiers in Nutrition, 2022).
Values joined by “and” are separate entries in the source; they are usually repeats but may differ in a detail not shown here. Equal entries are not always repeated. Blank lines part the entries; values can stand above or below the compound they belong to.

What was measured:
[1] = Rutin-MGO adducts in tissues, urine and feces of rats 24 h after oral rutin; assay type: in vivo, Sprague–Dawley rats; conditions: for Concentration in feces: feces collected within 24 h after rutin 100 mg/kg BW oral; for Concentration in urine: urine collected within 24 h after rutin 100 mg/kg BW oral
Procedure: (§1) The animals were treated as described in the study by Chen et al. ([22]). In brief, five 7 weeks old male Sprague–Dawley rats (190–220 g) were exposed to rutin (100 mg/kg BW) by oral gavage after fasting for 16 h. The plasma samples were collected at 0.25, 0.5, 1, 2, 4, 6, 8, 10, and 24 h after the administration, and stored under −80°C until analysis. The feces and urine were collected with the metabolic cages throughout the 24 h period. At 24 h, the rats were sacrificed after anesthetization, and the tissues including stomach, intestine (divided into duodenum, jejunum, ileum, caecum, and colon), heart, liver, kidney, and brain were taken and frozen immediately in liquid nitrogen and transferred to a deep freezer (−80°C) for storage before analysis. The procedures of the animal study followed the protocol by the Institutional Animal Care and Use Committee of the Laboratory Animal Center of Jinan University.
(§2) The plasma samples were treated as described by Chen et al. ([22]). About half gram of feces and tissue samples were weight accurately, and homogenized with 2 mL saline on an ice-bath. The homogenates were transferred to a centrifuge tube, added with 1 mL PBS (pH 5.0, 0.05 M) and 100 μL ascorbic acid (150 mg/mL), and extracted with 3 mL of methanol twice. The supernatants were combined after centrifugation at 13,000 × g under 4 °C for 10 min, evaporated to dryness, re-dissolved in 500 μL of 50% aqueous methanol containing 0.1% formic acid (v/v), and filtered through a 0.22 μm membrane for HPLC-MS/MS analysis. The adducts in 200 μL of urine were extracted twice with 1 mL methanol. The supernatants were collected after centrifugation at 13,000 × g under 4°C for 10 min, and evaporated to dryness. The residues were dissolved in 200 μL of 50% aqueous methanol containing 0.1% formic acid (v/v), and filtered through a 0.22 μm membrane for HPLC-MS/MS analysis. A sample of 1 μL was injected into an Agilent Technologies 1,260 Infinity HPLC (Agilent Technologies, CA, USA) interfaced to an AB 4500 Q-Trap mass spectrometer (AB Sciex, MA, USA) in the negative mode for quantification of adducts A and B, respectively. The eluting programs for HPLC analysis, and the operation conditions of mass spectrometer refers to those established by Chen et al. ([22]). […] Moreover, as the information on the occurrence levels of 6-(1,2-propanedione)-8-(1-acetol)-rutin, 6-(1-acetol)-8-(1,2-propanedione)-rutin, and 6-(1,2-propanedione)-8-(1,2-propanedione)-rutin discovered in the last study was still missing, the concentration of these oxidized rutin-MGO adducts in various tissues and urine and feces were also determined in this study. The qualification and quantification fragmentation transitions of these adducts refers to those provided previously ([22]).

[2] = rats, 15 min after administration of rutin; cited from earlier work
[3] = Plasma concentration of rutin-MGO adducts in rats after oral rutin (HPLC-MS/MS, MRM); assay type: in vivo, Sprague–Dawley rats
Procedure: as §1, §2

[4] = cited from earlier work; for Elimination rate on MGO (MGO scavenged): incubated with MGO at 37°C for 24 h
[5] = tested on: human colon carcinoma cell line (Caco-2); assay: Cytotoxicity by MTT assay, Caco-2; assay type: cell-based; conditions: Caco-2, 1 mM, 24 h
[6] = tested on: human umbilical vein endothelial (HUVEC) cell; assay: Cytotoxicity by MTT assay, HUVEC; assay type: cell-based; conditions: 1 mM, 24 h
[7] = tested on: human gastric epithelial cell line (GES-1); assay: Cytotoxicity by MTT assay, GES-1; assay type: cell-based; conditions: 24 h
[8] = tested on: AGEs; conditions: cited from earlier work
[9] = design: method as in PMID 19916501; conditions: anesthetized, mesenteric lymphatic/duodenum-cannulated rat model; cited from earlier work
[10] = 24 h after rutin 100 mg/kg BW oral
[11] = rutin 100 mg/kg BW oral gavage, time point 0.25 h
[12] = rutin 100 mg/kg BW oral gavage, time point 1.00 h
[13] = rutin 100 mg/kg BW oral gavage, time point 2.00 h

Concentration in brain [1, 10]: 0.12 ± 0.02 µg/kg | Concentration in caecum [1, 10]: trace | Concentration in heart [1, 10]: 0.14 ± 0.09 µg/kg | Concentration in ileum [1, 10]: trace | Concentration in kidney [1, 10]: 0.16 ± 0.04 µg/kg | Concentration in liver [1, 10]: 0.09 µg/kg and 0.09 ± 0.01 µg/kg | Concentration in stomach [1, 10]: 0.10 µg/kg and 0.10 ± 0.01 µg/kg | Concentration in feces [1]: 0.26 ± 0.18 µg/kg | Content in feces, folds lower than 6-(1,2-propanedione)-8-(1-acetol)-rutin and 6-(1-acetol)-8-(1,2-propanedione)-rutin ([1]; feces within 24 h after rutin 100 mg/kg BW oral): 6–9 folds | Concentration in urine [1]: 0.10 ng/mL and 0.10 ± 0.01 ng/mL
SMILES: CC(=O)C(=O)c1c(O)c(C(=O)C(C)=O)c2oc(-c3ccc(O)c(O)c3)c(O[C@@H]3O[C@H](CO[C@@H]4O[C@@H](C)[C@H](O)[C@@H](O)[C@H]4O)[C@@H](O)[C@H](O)[C@H]3O)c(=O)c2c1O [6-(1,2-propanedione)-8-(1,2-propanedione)-rutin]
Plasma concentration of oxidized rutin-MGO adducts [2]: 1.02 ng/mL

Concentration in brain [1, 10]: 0.11 ± 0.02 µg/kg | Concentration in heart [1, 10]: 0.09 ± 0.03 µg/kg | Concentration in ileum [1, 10]: trace | Concentration in kidney [1, 10]: 0.07 ± 0.01 µg/kg | Concentration in liver [1, 10]: trace | Concentration in feces [1]: 1.54 ± 0.49 µg/kg | Concentration in urine [1]: trace
SMILES: CC(=O)C(=O)c1c(O)c(C(O)C(C)=O)c2oc(-c3ccc(O)c(O)c3)c(OC3OC(COC4OC(C)C(O)C(O)C4O)C(O)C(O)C3O)c(=O)c2c1O (stereo not shown) [6-(1,2-propanedione)-8-(1-acetol)-rutin]
Plasma concentration of oxidized rutin-MGO adducts [2]: 2.38 ng/mL

Concentration in brain [1, 10]: 0.45 ± 0.28 µg/kg | Concentration in colon [1, 10]: trace | Concentration in heart [1, 10]: trace | Concentration in ileum [1, 10]: trace | Concentration in kidney [1, 10]: 0.12 ± 0.02 µg/kg | Concentration in liver [1, 10]: trace | Concentration in stomach [1, 10]: trace | Concentration in feces [1]: 2.23 ± 0.54 µg/kg | Concentration in urine [1]: 0.09 ng/mL and 0.09 ± 0.00 ng/mL
SMILES: CC(=O)C(=O)c1c(O)c(C(O)C(C)=O)c(O)c2c(=O)c(O[C@@H]3O[C@H](CO[C@@H]4O[C@@H](C)[C@H](O)[C@@H](O)[C@H]4O)[C@@H](O)[C@H](O)[C@H]3O)c(-c3ccc(O)c(O)c3)oc12 (stereo partly shown) [6-(1-acetol)-8-(1,2-propanedione)-rutin]
Plasma concentration of oxidized rutin-MGO adducts [2]: 1.61 ng/mL

Total (maximum) level in plasma, sum of adducts A and B ([3]; 15 min after oral rutin 100 mg/kg BW): 15.80 µg/L
SMILES: CC(=O)C(O)c1c(O)c(C(O)C(C)=O)c2oc(-c3ccc(O)c(O)c3)c(O[C@@H]3O[C@H](CO[C@@H]4O[C@@H](C)[C@H](O)[C@@H](O)[C@H]4O)[C@@H](O)[C@H](O)[C@H]3O)c(=O)c2c1O (stereo partly shown) [6-(1-acetol)-8-(1-acetol)-rutin]

SMILES: O=C(O[C@@H]1Cc2c(O)cc(O)cc2O[C@@H]1c1cc(O)c(O)c(O)c1)c1cc(O)c(O)c(O)c1 [(–)-epigallocatechin gallate]
Elimination rate on MGO (MGO scavenged) [4]: 99%

Concentration in kidney [1, 10]: trace | Concentration in feces [1]: Trace | concentration at 0.25 h ([3]; male, Sprague-Dawley, rat, plasma, oral, rutin 100 mg/kg BW oral gavage, time point 0.25 h): 9.4 ng/mL | Plasma concentration [3, 11]: 9.40 ± 6.37 ng/mL | Plasma concentration [3, 12]: trace | Plasma concentration [3, 13]: trace | Plasma concentration ([3]; rutin 100 mg/kg BW oral gavage, time point 10.00 h): trace
SMILES: CC(=O)C(O)c1c(O)c(C(O)C(C)=O)c2oc(-c3ccc(O)c(O)c3)c(OC3OC(COC4OC(C)C(O)C(O)C4O)C(O)C(O)C3O)c(=O)c2c1O (stereo not shown) [Adduct A, 6-(1-acetol)-8-(1-acetol)-rutin]
Reduction of cell viability (cells dead) [5]: 19% | Reduction of cell viability (cells dead) [6]: 19% | Reduction of cell viability (cells dead) ([7]; GES-1, 1 mM): 27%

Concentration in kidney [1, 10]: trace | Concentration in feces [1]: Trace | Plasma concentration [3, 11]: 6.40 ng/mL and 6.40 ± 3.90 ng/mL | Plasma concentration [3, 12]: trace | Plasma concentration [3, 13]: trace | Plasma concentration ([3]; rutin 100 mg/kg BW oral gavage, time point 8.00 h): trace | Plasma concentration ([3]; rutin 100 mg/kg BW oral gavage, time point 24.00 h): trace
SMILES: CC(=O)C(O)c1c(O)c(C(O)C(C)=O)c2oc(-c3ccc(O)c(O)c3)c(OC3OC(COC4OC(C)C(O)C(O)C4O)C(O)C(O)C3O)c(=O)c2c1O (stereo not shown) [Adduct B, 6-(1-acetol)-8-(1-acetol)-rutin]
Reduction of cell viability (cells dead) [5]: 18% | Reduction of cell viability (cells dead) [6]: 16% | Reduction of cell viability (cells dead) ([7]; GES-1, 1 mM): 25%

SMILES: CC(=O)C=O [MGO, Methylglyoxal]
Growth of the cells inhibited ([7]; GES-1, 600 μM): more than 50% | Cells left alive ([7]; GES-1, 1 mM): 17% | Growth of the cells inhibited ([7]; GES-1, 200–400 μM): 18–19%

SMILES: O=c1cc(-c2ccc(O)cc2)oc2cc(O)cc(O)c12 [apigenin]
Elimination rate on MGO (MGO scavenged) [4]: 40%

SMILES: Oc1cc(O)c2c(c1)O[C@H](c1ccc(O)c(O)c1)[C@H](O)C2 [epicatechin]
Elimination rate on MGO (MGO scavenged) [4]: 99%

SMILES: COc1ccc([C@@H]2CC(=O)c3c(O)cc(O)cc3O2)cc1O [hesperetin]
Elimination rate on MGO (MGO scavenged) [4]: 63%

SMILES: O=C(CCc1ccc(O)cc1)c1c(O)cc(O)cc1O [phloretin]
Elimination rate on MGO (MGO scavenged) [4]: 99%

SMILES: C[C@@H]1O[C@@H](OC[C@H]2O[C@@H](Oc3c(-c4ccc(O)c(O)c4)oc4cc(O)cc(O)c4c3=O)[C@H](O)[C@@H](O)[C@@H]2O)[C@H](O)[C@H](O)[C@H]1O [rutin, quercetin-3-O-rutinoside]
Inhibitory effect on the formation of AGEs in glycation reaction [8]: more than 90% | Reduction of cell viability (cells dead) [5]: 15% | MGO eliminated ([4]; rutin 0.5 mM with MGO 0.5 mM, 37 °C, 24 h, simulated physiological condition): 50% | Reduction of cell viability (cells dead) [6]: 12% | Reduction of cell viability (cells dead) ([7]; GES-1, 1 mM): 16% | Time at which plasma concentration reached maximum [9]: 60 min
